Reference: patent US20200016159A1, “N3-CYCLICALLY SUBSTITUTED THIENOURACILS AND USE THEREOF” (Bayer Aktiengesellschaft, priority 2016, published 2020)

Biological target: T1, human adenosine A2b receptor (Homo sapiens, UniProt P29275)
T1 sequence (P29275 1-332): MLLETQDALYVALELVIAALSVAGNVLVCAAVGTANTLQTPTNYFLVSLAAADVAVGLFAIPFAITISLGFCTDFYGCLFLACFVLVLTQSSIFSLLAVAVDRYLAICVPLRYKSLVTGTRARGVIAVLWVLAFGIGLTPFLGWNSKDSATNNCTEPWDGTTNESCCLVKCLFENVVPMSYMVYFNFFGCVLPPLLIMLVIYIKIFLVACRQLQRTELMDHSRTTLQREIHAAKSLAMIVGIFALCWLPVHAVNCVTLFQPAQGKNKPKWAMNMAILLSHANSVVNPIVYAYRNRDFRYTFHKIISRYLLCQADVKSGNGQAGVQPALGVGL
Experiment: Cellular in vitro reporter gene test for A2b receptor activity (antagonism of NECA)
Format: cell-based
Design: expressed in transfected cells; host or cells: CHO-K1 (Chinese hamster ovary) with CRE-luciferase reporter
Settings: recombinant CHO-K1 cells, CRE-luciferase reporter, co-incubation with EC50 concentration of NECA, 3 hours
Procedure, shortened: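 Antagonism measured as block of NECA-induced, cAMP/CRE-dependent luciferase expression in recombinant A2b CHO-K1 cells. NECA used at the EC50 set in a pre-experiment on each test day; luminescence detected after 3 h. Reported as IC50, partly averaged and rounded to two significant figures.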

SMILES | IC50
Cc1c(CN2CCNC2=O)sc2c1c(=O)n(C1CC1C)c(=O)n2CC1CCOC1 (centres unmarked) [Example 289, 5-Methyl-3-(2-methylcyclopropyl)-6-[(2-oxoimidazolidin-1-yl)methyl]-1-(tetrahydrofuran-3-ylmethyl)thieno[2,3-d]pyrimidine-2,4(1H,3H)-dione] | 0.035 µM
COCCn1c(=O)n(C2CC2)c(=O)c2c(C)c(CN3CCNC3=O)sc21 [Example 24, 3-Cyclopropyl-1-(2-methoxyethyl)-5-methyl-6-[(2-oxoimidazolidin-1-yl)methyl]thieno[2,3-d]pyrimidine-2,4(1H,3H)-dione] | 0.029 µM
COCCn1c(=O)n(C2CC(F)(F)C2)c(=O)c2c(C)c(CN3CCNC(=O)C3=O)sc21 [Example 128, 3-(3,3-Difluorocyclobutyl)-6-[(2,3-dioxopiperazin-1-yl)methyl]-1-(2-methoxyethyl)-5-methylthieno[2,3-d]pyrimidine-2,4(1H,3H)-dione] | 0.036 µM
Cc1c(Cn2nc[nH]c2=O)sc2c1c(=O)n([C@H]1C[C@@H]1C)c(=O)n2CCCC(F)(F)F [Example 324, 5-Methyl-3-[(1S,2S)-2-methylcyclopropyl]-6-[(5-oxo-4,5-dihydro-1H-1,2,4-triazol-1-yl)methyl]-1-(4,4,4-trifluorobutyl)thieno[2,3-d]pyrimidine-2,4(1H, 3H)-dione] | 0.0055 µM
COCCn1c(=O)n(C2(C)CC2)c(=O)c2c(C)c(CN3CCNC3=NC(=O)OC)sc21 [Example 72, Methyl [1-{[1-(2-methoxyethyl)-5-methyl-3-(1-methylcyclopropyl)-2,4-dioxo-1,2,3,4-tetrahydrothieno[2,3-d]pyrimidin-6-yl]methyl}imidazolidine-2-ylidene]carbamate] | 0.015 µM
CCOCCn1c(=O)n(C2(C)CC2)c(=O)c2c(C)c(Cn3nc[nH]c3=O)sc21 [Example 78, 1-(2-Ethoxyethyl)-5-methyl-3-(1-methylcyclopropyl)-6-[(5-oxo-4,5-dihydro-1H-1,2,4-triazol-1-yl)methyl]thieno[2,3-d]pyrimidine-2,4(1H,3H)-dione] | 0.56 µM
COCCn1c(=O)n(C2CCCC2)c(=O)c2c(C)c(CN3CCNC3=NC#N)sc21 [Example 190, [1-{[3-Cyclopentyl-1-(2-methoxyethyl)-5-methyl-2,4-dioxo-1,2,3,4-tetrahydrothieno[2,3-d]pyrimidin-6-yl]methyl}imidazolidin-2-ylidene]cyanamide] | 0.028 µM
Cc1c(CN2CCNC2=O)sc2c1c(=O)n([C@H]1C[C@@H]1C)c(=O)n2CC1CCC(F)(F)C1 (stereo partly drawn) [Example 255, 1-[(3,3-Difluorocyclopenty)methy]-5-methyethyl-3-[(S,2S)-2-methylcyclopropyl]-6-[(2-oxoimidazolidin-1-yl)methyl]thieno[2,3-d]pyrimidine-2,4(1H,3H)-dione] | 0.0067 µM
COCCn1c(=O)n([C@H]2C[C@@H](OC)C2)c(=O)c2c(C)c(CN3CCNC(=O)C3=O)sc21 [Example 162, 6-[(2,3-Dioxopiperazin-1-yl)methyl]-3-(cis-3-methoxycyclobutyl)-1-(2-methoxyethyl)-5-methylthieno[2,3-d]pyrimidine-2,4(1H,3H)-dione] | 0.73 µM
COCCn1c(=O)n([C@H]2C[C@H](OC)C2)c(=O)c2c(C)c(Cn3nc[nH]c3=O)sc21 [Example 153, 3-(trans-3-Methoxycyclobutyl)-1-(2-methoxyethyl)-5-methyl-6-[(5-oxo-4,5-dihydro-1H-1,2,4-triazol-1-yl)methyl]thieno[2,3-d]pyrimidine-2,4(1H,3H)-dione] | 0.22 µM
Cc1c(Cn2[nH]ccc2=O)sc2c1c(=O)n(C1CCC1)c(=O)n2CCC(F)(F)F [Example 312, 3-Cyclobutyl-5-methyl-6-[(5-oxo-2,5-dihydro-1H-pyrazol-1-yl)methyl]-1-(3,3,3-trifluoropropyl)thieno[2,3-d]pyrimidine-2,4(1H,3H)-dione] | 0.015 µM
